“And” between values parts separate entries of the source, which are not always exact repeats. Equal entries are not always repeated.
What was measured:
Nluc-FFA1 = target: T1, Nluc-FFA1 (Homo sapiens, UniProt O14842); experiment: NanoBRET binding (saturation, competition, kinetics) at N terminal Nluc tagged FFA1; settings: for Specific BRET (690/450)%: Figure 4Ci; for Specific BRET (690/450)% / Specific BRET (540/450)%: technical duplicates; for Specific BRET (540/450)%: Figure 4Cii
T1 construct: expressed in transfected cells
T1 sequence (O14842 whole entry): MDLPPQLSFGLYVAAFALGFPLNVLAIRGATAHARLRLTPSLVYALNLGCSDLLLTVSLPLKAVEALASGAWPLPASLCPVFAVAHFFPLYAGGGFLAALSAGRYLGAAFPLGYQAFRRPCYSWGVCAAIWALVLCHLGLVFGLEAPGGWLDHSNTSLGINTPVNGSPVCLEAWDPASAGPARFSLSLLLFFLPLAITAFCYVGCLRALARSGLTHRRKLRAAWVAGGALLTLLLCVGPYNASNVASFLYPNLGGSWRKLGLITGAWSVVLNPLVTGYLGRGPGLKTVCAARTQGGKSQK

FFA1 = FFA1 (Homo sapiens, UniProt O14842); experiment: Ca2+ mobilisation (Fura2) in Flp-In T-REx 293 cells expressing Nluc-FFA1, FFA1-Nluc or untagged FFA1; type: cell-based; set-up: expressed in transfected cells; settings: for Ca2+ Response as a % of T360 Response: single technical replicates
Sequence of FFA1 (O14842 whole entry): as above
Procedure, shortened: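 520 nm emission read at 340 and 380 nm excitation over 90 s spanning compound addition. Response taken as peak 340/380 ratio after subtracting pre-addition ratios.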

COc1ccc(C(=O)N(CC(C)(C)C)c2cccc(C)n2)c(N2CCC(COc3cccc(C(CC(=O)O)C4CC4)c3)CC2)c1.O=C(O)C(F)(F)F (stereo not shown) [Cpd 6h, reference compound]
Specific BRET (690/450)% (Nluc-FFA1; log[Ligand] -5): 154.01% and 159.82% and 184.44% and 164.18% and 149.89% and 140.91%
Specific BRET (690/450)% (Nluc-FFA1; log[Ligand] -5.5): 149.18% and 149.96% and 186.01% and 169.50% and 140.81% and 140.26%
Specific BRET (690/450)% (Nluc-FFA1; log[Ligand] -6): 148.97% and 147.78% and 172.23% and 173.39% and 141.21% and 145.62%
Specific BRET (690/450)% (Nluc-FFA1; log[Ligand] -6.5): 146.95% and 143.16% and 174.27% and 175.78% and 147.71% and 149.19%
Specific BRET (690/450)% (Nluc-FFA1; log[Ligand] -7): 142.54% and 138.75% and 174.07% and 180.89% and 144.33% and 137.24%
Specific BRET (690/450)% (Nluc-FFA1; log[Ligand] -8): 121.15% and 120.06% and 152.10% and 144.46% and 121.71% and 120.62%
Specific BRET (690/450)% (Nluc-FFA1; log[Ligand] -9): 105.22% and 101.22% and 121.39% and 115.73% and 104.79% and 106.52%
Specific BRET (690/450)% (Nluc-FFA1; log[Ligand] -10): 100.55% and 99.45% and 103.65% and 96.35% and 96.40% and 103.60%
Specific BRET (540/450)% (Nluc-FFA1; log[Ligand] -7): 19.25% and 26.02% and 25.79% and 30.80% and 33.39% and 36.04%
Specific BRET (540/450)% (Nluc-FFA1; log[Ligand] -8): 119.18% and 117.93% and 79.82% and 76.64% and 93.10% and 100.29%
Specific BRET (540/450)% (Nluc-FFA1; log[Ligand] -9): 109.78% and 127.71% and 86.42% and 90.20% and 105.18% and 118.46%
Specific BRET (540/450)% (Nluc-FFA1; log[Ligand] -10): 94.36% and 105.64% and 98.39% and 101.61% and 82.28% and 117.72%
'bottom' of the IC50 curve fit, Nano-BRET TUG-2591 (Nluc-FFA1; percentage of binding in the absence of competing ligand, tracer TUG-2591 100 nM): 160%
'bottom' of the IC50 curve fit, Nano-BRET TUG-2597 (Nluc-FFA1; percentage of binding in the absence of competing ligand, tracer TUG-2597 […]): -16%
pIC50 Nano-BRET TUG-2597 (Nluc-FFA1; tracer TUG-2597 […], NBD/Nluc): 7.2±0.03
pKi Nano-BRET TUG-2597 (Nluc-FFA1; using Kd TUG-2597 380 nM): 7.5±0.03
pEC50 (FFA1; Ca2+ data, mean±SEM, NR = No response): 7.58±0.37
Ca2+ Response as a % of T360 Response (FFA1; log[Ligand] -5): 84.6341% and 118.5422% and 131.5391% and 131.6815%
Ca2+ Response as a % of T360 Response (FFA1; log[Ligand] -5.5): 110.3362% and 90.2944% and 104.2328% and 116.7691% and 104.8460% and 102.3011%
Ca2+ Response as a % of T360 Response (FFA1; log[Ligand] -6): 71.8152% and 70.2762% and 114.0711% and 118.1782% and 101.8675% and 96.5850%
Ca2+ Response as a % of T360 Response (FFA1; log[Ligand] -6.5): 60.3759% and 123.2785% and 113.4233% and 101.5371% and 93.1451%
Ca2+ Response as a % of T360 Response (FFA1; log[Ligand] -7): 63.1956% and 51.7459% and 118.1727% and 120.9922% and 92.4678% and 86.2833%
Ca2+ Response as a % of T360 Response (FFA1; log[Ligand] -8): 10.9661% and -4.3988% and 87.5826% and 74.3785% and 6.7799% and 2.9748%
Ca2+ Response as a % of T360 Response (FFA1; log[Ligand] -9): -2.3895% and -2.3898% and 3.1637% and 3.9796% and -0.4916% and 4.7706%
EMax (FFA1; percentage of response to 10 μM T360, NR = No response): 108±8%

— article PMC12254266, “Multicolored sequential resonance energy transfer for detection of simultaneous ligand binding at G protein-coupled receptors” (Nature Communications, 2025)
